Measurements reported in patent US20140088187A1, “ANDROGEN RECEPTOR INHIBITORS AND METHODS OF USE THEREOF” (BETH ISRAEL DEACONESS MEDICAL CENTER, priority 2010, published 2014).
Entries after “also recorded” stand apart in the source; their conditions may differ.

Assays:
wildtype AR = molecular target: T1, wildtype AR (Homo sapiens, UniProt P10275); test: AR-responsive firefly luciferase reporter assay in COS7 cells transfected with AR (DHT-stimulated AR activity); format: cell-based; settings: relative to initial chemotype A compounds; data not shown
T1 construct: The AR WT construct expresses full-length human AR under cmv promoter control; expressed in transfected cells; host or cells: COS7
T1 sequence (P10275 1-920): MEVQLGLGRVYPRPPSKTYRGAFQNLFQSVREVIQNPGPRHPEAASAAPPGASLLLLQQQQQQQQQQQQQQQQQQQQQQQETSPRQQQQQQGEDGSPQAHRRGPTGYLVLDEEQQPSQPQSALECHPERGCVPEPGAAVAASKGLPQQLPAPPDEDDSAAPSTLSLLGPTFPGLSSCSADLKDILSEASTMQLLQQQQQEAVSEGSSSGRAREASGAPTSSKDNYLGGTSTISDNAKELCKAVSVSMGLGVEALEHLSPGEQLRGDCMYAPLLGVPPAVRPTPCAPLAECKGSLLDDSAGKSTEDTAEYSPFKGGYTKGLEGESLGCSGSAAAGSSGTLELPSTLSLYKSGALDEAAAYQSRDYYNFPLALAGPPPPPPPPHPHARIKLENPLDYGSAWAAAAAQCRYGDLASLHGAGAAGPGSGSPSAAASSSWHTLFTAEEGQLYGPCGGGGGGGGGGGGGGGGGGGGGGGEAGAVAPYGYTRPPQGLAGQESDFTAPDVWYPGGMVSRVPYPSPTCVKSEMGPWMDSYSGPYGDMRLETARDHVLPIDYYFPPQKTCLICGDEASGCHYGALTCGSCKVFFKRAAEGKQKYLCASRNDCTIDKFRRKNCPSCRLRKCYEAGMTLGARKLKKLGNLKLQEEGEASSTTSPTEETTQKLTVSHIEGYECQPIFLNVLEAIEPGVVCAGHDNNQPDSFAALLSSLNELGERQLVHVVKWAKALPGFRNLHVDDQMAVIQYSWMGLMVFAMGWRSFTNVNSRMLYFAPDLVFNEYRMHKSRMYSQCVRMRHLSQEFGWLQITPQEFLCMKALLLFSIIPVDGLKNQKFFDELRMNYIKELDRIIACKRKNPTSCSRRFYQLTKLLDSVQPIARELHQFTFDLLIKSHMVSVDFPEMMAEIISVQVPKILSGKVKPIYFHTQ
From the text: FIG. 13. Antagonist activity of generation 4 compounds at 25 micromolar. […] Reporter firefly luciferase is corrected for control Renilla activity.
FIG. 14. Antagonist activity of generation 4 compounds at 1-10 micromolar. […] Reporter firefly luciferase is corrected for control Renilla activity. […]
The AR-responsive firefly luciferase reporter consists of 4 tandem repeats of the consensus steroid response element cloned upstream of the pGL3-Basic Luciferase vector (Promega). The AR WT construct expresses full-length human AR under cmv promoter control.
Luciferase activity was determined using the Dual-Luciferase Reporter Assay System (Promega E1910).

AR WT = molecular target: T2, AR WT (Homo sapiens, UniProt P10275); test: Mifepristone-stimulated VP16-NCoRc recruitment reporter assay in COS7 cells, AR WT; format: cell-based
T2 construct: The AR WT construct expresses full-length human AR under cmv promoter control; expressed in transfected cells; host or cells: COS7
T2 sequence (P10275 1-920): T1 sequence (P10275 1-920)
From the text: The ERα antagonist fulvestrant (Faslodex) represents a novel class of estrogen receptor downregulators that appear to mediate ERα degradation by specifically repositioning helix 12. To assess the role of helix 12 in chemotype A-mediated AR degradation, we first determined if helix 12 is required for A89 binding. As this helix is required for AR agonist activity, we could not directly measure competitive antagonist activity on a truncated AR lacking helix 12.

AR = molecular target: T3, AR (Mus musculus, UniProt P19091); test: Dose ranging experiment in intact adult male mice (seminal vesicles, prostate epithelium); format: in vivo
T3 construct: we first treated adult male mice with compound A89 in a dose ranging experiment; from tissue; host or cells: seminal vesicles and prostate epithelium of intact adult male mice
T3 sequence (P19091 1-899): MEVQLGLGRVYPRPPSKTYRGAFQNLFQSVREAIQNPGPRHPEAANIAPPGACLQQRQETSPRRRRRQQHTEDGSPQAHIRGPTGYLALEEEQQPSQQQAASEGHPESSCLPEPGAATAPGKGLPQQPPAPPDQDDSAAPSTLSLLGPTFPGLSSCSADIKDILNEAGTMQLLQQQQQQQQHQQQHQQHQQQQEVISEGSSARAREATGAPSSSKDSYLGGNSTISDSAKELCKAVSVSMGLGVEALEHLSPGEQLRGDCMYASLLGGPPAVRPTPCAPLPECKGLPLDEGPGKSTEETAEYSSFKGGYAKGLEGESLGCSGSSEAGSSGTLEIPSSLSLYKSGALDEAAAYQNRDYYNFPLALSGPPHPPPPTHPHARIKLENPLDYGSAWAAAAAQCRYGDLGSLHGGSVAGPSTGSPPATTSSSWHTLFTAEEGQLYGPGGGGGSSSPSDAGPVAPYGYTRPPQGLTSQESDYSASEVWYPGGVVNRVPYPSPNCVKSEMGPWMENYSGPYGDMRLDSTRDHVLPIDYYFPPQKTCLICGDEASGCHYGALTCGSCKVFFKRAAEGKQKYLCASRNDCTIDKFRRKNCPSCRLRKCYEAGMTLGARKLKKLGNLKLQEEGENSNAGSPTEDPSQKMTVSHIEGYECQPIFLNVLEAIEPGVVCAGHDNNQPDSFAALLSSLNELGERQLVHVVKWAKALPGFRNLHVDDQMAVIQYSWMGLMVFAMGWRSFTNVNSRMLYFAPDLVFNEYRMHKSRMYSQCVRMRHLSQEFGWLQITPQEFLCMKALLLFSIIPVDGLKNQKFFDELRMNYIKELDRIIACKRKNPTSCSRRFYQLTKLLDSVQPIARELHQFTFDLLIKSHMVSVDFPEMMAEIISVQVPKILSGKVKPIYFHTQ
Experimental: (§1) FIG. 17. Compound A89 maintains activity in vivo and is efficacious in a CRPC xenograft model. (a) Morphological changes in seminal vesicles of intact adult male mice following treatment with DMSO vehicle, Bic (0.5 mg/day) or A89 (mg/day as indicated) for 7 days. (b) H&E stained cross-sections of prostate ductal epithelium from above mice treated with DMSO, Bic, or A89 (10 mg/day). (c) AR and Ki-67 staining in pre- and post-castration relapsed VCaP xenograft tumor sections following treatment with A89 (5 mg/day) or Bic (0.5 mg/day) for 7 days. (d) mRNA levels of AR and AR-target genes in post-castration relapsed VCaP xenograft tumors following treatment with A89 (5 mg/day) for 7 days. Error bars represent S.E.M.
(§2) To evaluate the activity of the chemotype A compounds in vivo we first treated adult male mice with compound A89 in a dose ranging experiment from 0.5 mg/day to 10 mg/day via intraperitoneal injection for 7 days. […] We next evaluated A89 in VCaP xenograft tumors that had relapsed following an initial response to castration, which is a model of CRPC.

VCaP xenograft tumors = test: Post-castration relapsed VCaP xenograft tumors (model of CRPC); format: in vivo
Experimental: as §1, §2

CCOc1cc(F)c(S(=O)(=O)NCc2ccc3c(c2)OCO3)cc1F [Compound A89, N-(1,3-benzodioxol-5-ylmethyl)-4-ethoxy-2,5-difluorobenzenesulfonamide]
potency in antagonizing AR activity in luciferase reporter assays (wildtype AR): increased potency; also recorded: relatively higher potency
mifepristone-mediated VP16-NCoRc recruitment (AR WT; A89 50 μM with Mif 100 nM): suppressed
VP16-NCoRc recruitment (interaction with AR) (AR WT; Mif 100 nM, A89 50 μM, 24 hours): did not stimulate
general health of mice (AR; 0.5 mg/day to 10 mg/day intraperitoneal injection for 7 days): outwardly healthy
androgen sensitive prostate epithelium (AR; adult male mice, 7 days (10 mg/day in FIG. 17b)): atrophy
seminal vesicles dose-dependent involution, beginning at dose (AR; adult male mice, intraperitoneal injection for 7 days): ≥ 2.5 mg/day
tumor cell proliferation (Ki-67 staining) (VCaP xenograft tumors; A89 5 mg/day for 7 days): decreased tumor cell proliferation
nuclear AR expression / staining in tumor (VCaP xenograft tumors; A89 5 mg/day or Bic 0.5 mg/day for 7 days): substantially decreased
expression of androgen regulated genes (TMPRSS2, ERG, PSA mRNA) (VCaP xenograft tumors; biopsies pre- and post treatment, A89 5 mg/day for 7 days): significant decrease
